# Reference: patent publication US10118935B2, “Melampomagnolide B dimers” (priority 2014, dated 2018)
# Assays:
# HT29 = experiment: NCI 60 cell line five dose, Colon Cancer; details: read-out: LC50, molar
# A498 = experiment: NCI 60 cell line five dose, Renal Cancer
# TK-10 = experiment: NCI 60 cell line five dose, Renal Cancer
# MDA-MB-231/ATCC = experiment: NCI 60 cell line five dose, Breast Cancer
# HS 578T = experiment: NCI 60 cell line five dose, Breast Cancer; details: HS578T
# T-47D = experiment: NCI 60 cell line five dose, Breast Cancer
# OVCAR-4 = experiment: NCI 60 cell line five dose, Ovarian Cancer
# OVCAR-8 = experiment: NCI 60 cell line five dose, Ovarian Cancer
# DU-145 = experiment: NCI 60 cell line five dose, Prostate Cancer
# NCI-H226 = experiment: NCI 60 cell line five dose, Non-Small Cell Lung Cancer
# NCI-H23 = experiment: as above
# NCI-H322M = experiment: as above
# NCI-H522 = experiment: as above
smiles,measurement,setting,value
"C=C1C(=O)O[C@H]2[C@H]1CC/C(COC(=O)NCCCCCCCCNC(=O)OC/C1=C/CC[C@@]3(C)O[C@H]3[C@H]3OC(=O)C(=C)[C@@H]3CC1)=C\CC[C@@]1(C)O[C@@H]21 [JVM 3-62, bis(((1aR,7aS, 10aS, 10bS, E)-1a-Methyl-8-methylene-9-oxo-1a,2,3,6,7,7a,8,9,10a,10b-decahydrooxireno[2′,3′:9,10]cyclodeca[1,2-b]furan-5-yl)methyl)octane-1,8-diyldicarbamate]",CC50,HT29,2270 nM
same,Percent Growth,A498; Log10 Concentration −4.0,−83%
same,Percent Growth,A498; Log10 Concentration −5.0,−91%
same,Percent Growth,A498; Log10 Concentration −6.0,91%
same,Percent Growth,A498; Log10 Concentration −7.0,104%
same,Percent Growth,A498; Log10 Concentration −8.0,94%
same,GI50,A498; molar,1690 nM
same,TGI,A498; molar,3.14E−6
same,CC50,"A498; read-out: LC50, molar",5830 nM
same,Percent Growth,TK-10; Log10 Concentration −4.0,−99%
same,Percent Growth,TK-10; Log10 Concentration −5.0,−98%
same,Percent Growth,TK-10; Log10 Concentration −6.0,−7%
same,Percent Growth,TK-10; Log10 Concentration −7.0,97%
same,Percent Growth,TK-10; Log10 Concentration −8.0,92%
same,GI50,TK-10; molar,284 nM
same,TGI,TK-10; molar,8.56E−7
same,CC50,"TK-10; read-out: LC50, molar",2950 nM
same,Percent Growth,MDA-MB-231/ATCC; Log10 Concentration −4.0,−80%
same,Percent Growth,MDA-MB-231/ATCC; Log10 Concentration −5.0,−78%
same,Percent Growth,MDA-MB-231/ATCC; Log10 Concentration −6.0,−47%
same,Percent Growth,MDA-MB-231/ATCC; Log10 Concentration −7.0,92%
same,Percent Growth,MDA-MB-231/ATCC; Log10 Concentration −8.0,99%
same,GI50,MDA-MB-231/ATCC; molar,200 nM
same,TGI,MDA-MB-231/ATCC; molar,4.58E−7
same,CC50,"MDA-MB-231/ATCC; read-out: LC50, molar",1240 nM
same,Percent Growth,HS 578T; Log10 Concentration −4.0,−26%
same,Percent Growth,HS 578T; Log10 Concentration −5.0,−5%
same,Percent Growth,HS 578T; Log10 Concentration −6.0,54%
same,Percent Growth,HS 578T; Log10 Concentration −7.0,90%
same,Percent Growth,HS 578T; Log10 Concentration −8.0,94%
same,GI50,HS 578T; molar,1170 nM
same,TGI,HS 578T; molar,8.25E−6
same,CC50,"HS 578T; read-out: LC50, molar",> 100000 nM
same,Percent Growth,T-47D; Log10 Concentration −4.0,−49%
same,Percent Growth,T-47D; Log10 Concentration −5.0,−46%
same,Percent Growth,T-47D; Log10 Concentration −6.0,−4%
same,Percent Growth,T-47D; Log10 Concentration −7.0,100%
same,Percent Growth,T-47D; Log10 Concentration −8.0,92%
same,GI50,T-47D; molar,323 nM
same,TGI,T-47D; molar,9.15E−7
same,CC50,"T-47D; read-out: LC50, molar",> 100000 nM
same,Percent Growth,OVCAR-4; Log10 Concentration −4.0,−89%
same,Percent Growth,OVCAR-4; Log10 Concentration −5.0,−92%
same,Percent Growth,OVCAR-4; Log10 Concentration −6.0,34%
same,Percent Growth,OVCAR-4; Log10 Concentration −7.0,91%
same,Percent Growth,OVCAR-4; Log10 Concentration −8.0,90%
same,GI50,OVCAR-4; molar,521 nM
same,CC50,"OVCAR-4; read-out: LC50, molar",4630 nM
same,Percent Growth,OVCAR-8; Log10 Concentration −4.0,−55%
same,Percent Growth,OVCAR-8; Log10 Concentration −5.0,−51%
same,Percent Growth,OVCAR-8; Log10 Concentration −6.0,6%
same,Percent Growth,OVCAR-8; Log10 Concentration −7.0,96%
same,Percent Growth,OVCAR-8; Log10 Concentration −8.0,100%
same,GI50,OVCAR-8; molar,326 nM
same,CC50,"OVCAR-8; read-out: LC50, molar",6770 nM
same,Percent Growth,DU-145; Log10 Concentration −4.0,−100%
same,Percent Growth,DU-145; Log10 Concentration −5.0,−99%
same,Percent Growth,DU-145; Log10 Concentration −6.0,56%
same,Percent Growth,DU-145; Log10 Concentration −7.0,105%
same,Percent Growth,DU-145; Log10 Concentration −8.0,103%
same,GI50,DU-145; molar,1100 nM
same,TGI,DU-145; molar,2.30E−6
same,CC50,"DU-145; read-out: LC50, molar",4810 nM
same,Percent Growth,NCI-H226; Log10 Concentration −4.0,−57%
same,Percent Growth,NCI-H226; Log10 Concentration −5.0,−46%
same,Percent Growth,NCI-H226; Log10 Concentration −6.0,83%
same,Percent Growth,NCI-H226; Log10 Concentration −7.0,89%
same,Percent Growth,NCI-H226; Log10 Concentration −8.0,93%
same,GI50,NCI-H226; molar,1810 nM
same,TGI,NCI-H226; molar,4.39E−6
same,Percent Growth,NCI-H23; Log10 Concentration −4.0,−78%
same,Percent Growth,NCI-H23; Log10 Concentration −5.0,−85%
same,Percent Growth,NCI-H23; Log10 Concentration −6.0,27%
same,Percent Growth,NCI-H23; Log10 Concentration −7.0,100%
same,Percent Growth,NCI-H23; Log10 Concentration −8.0,100%
same,GI50,NCI-H23; molar,485 nM
same,TGI,NCI-H23; molar,1.74E−6
same,CC50,"NCI-H23; read-out: LC50, molar",4860 nM
same,Percent Growth,NCI-H322M; Log10 Concentration −4.0,−91%
same,Percent Growth,NCI-H322M; Log10 Concentration −5.0,−51%
same,Percent Growth,NCI-H322M; Log10 Concentration −6.0,100%
same,Percent Growth,NCI-H322M; Log10 Concentration −7.0,104%
same,Percent Growth,NCI-H322M; Log10 Concentration −8.0,107%
same,GI50,NCI-H322M; molar,2140 nM
same,Percent Growth,NCI-H522; Log10 Concentration −4.0,−66%
same,Percent Growth,NCI-H522; Log10 Concentration −5.0,−75%
same,Percent Growth,NCI-H522; Log10 Concentration −6.0,−57%
same,Percent Growth,NCI-H522; Log10 Concentration −7.0,89%
same,Percent Growth,NCI-H522; Log10 Concentration −8.0,86%
same,GI50,NCI-H522; molar,186 nM
same,TGI,NCI-H522; molar,4.07E−7
same,CC50,"NCI-H522; read-out: LC50, molar",893 nM
